In ChEMBL document CHEMBL4373660, “The synthesis and biological evaluation of novel gardenamide A derivatives as multifunctional neuroprotective agents” (Medchemcomm, 2019):

Assays:
Cortical neurone [1] = assay: (§1) Neuroprotective activity against OGD-induced neurotoxicity in Sprague-Dawley rat cortical neuron assessed as cell survival rate at 0.1 uM pretreated for 24 hrs followed by incubation in oxygen and glucose deprivation medium for 2 hrs followed by exposure to reoxygenation by re-incubating in normoxia condition for 24 hrs by MTT assay (reference value: 58.5 to 61.2 %); assay type: functional
Cortical neurone [2] = assay: as §1, with “10” for “0.1”; assay type: functional
Cortical neurone [3] = assay: as §1, with “1” for “0.1”; assay type: functional
[4] = Cytotoxicity against Sprague-Dawley rat cortical neuron assessed as cell survival at 100 uM incubated for 48 hrs by CellTiter Glo-based luminescence assay relative to control; design: species or system Cortical neurone; settings: rat cortical neurons, read-out: Activity
[5] = Cytotoxicity against Sprague-Dawley rat cortical neuron assessed as cell survival at 3.7 uM incubated for 48 hrs by CellTiter Glo-based luminescence assay relative to control; design: species or system Cortical neurone; settings: rat cortical neurons, read-out: Activity
Hippocampal neurone [6] = assay: Neuroprotective activity against H2O2-induced neurotoxicity in Sprague-Dawley rat hippocampal neuron assessed as increase in cell survival rate incubated for 24 hrs in presence of 150 uM H2O2 by MTT assay; assay type: functional, cell-based
[7] = Cytotoxicity against Sprague-Dawley rat cortical neuron assessed as cell survival at 11.1 uM incubated for 48 hrs by CellTiter Glo-based luminescence assay relative to control; design: species or system Cortical neurone; settings: rat cortical neurons, read-out: Activity
[8] = Neuroprotective activity against H2O2-induced neurotoxicity in Sprague-Dawley rat hippocampal neuron assessed as cell survival rate at 1 uM incubated for 24 hrs in presence of 150 uM H2O2 by MTT assay (reference value: 41.6 to 43.2 %); assay type: functional, Hippocampal neurone
Hippocampal neurone [9] = assay: Neuroprotective activity against amyloid beta (1 to 42)-induced neurotoxicity in Sprague-Dawley rat hippocampal neuron assessed as increase in cell survival rate incubated for 48 hrs in presence of amyloid beta (1 to 42) by CellTiter Glo-based luminescence assay; assay type: functional
[10] = Neuroprotective activity against H2O2-induced neurotoxicity in Sprague-Dawley rat hippocampal neuron assessed as cell survival rate at 10 uM incubated for 24 hrs in presence of 150 uM H2O2 by MTT assay (reference value: 41.6 to 43.2 %); assay type: functional, Hippocampal neurone
[11] = Neuroprotective activity against H2O2-induced neurotoxicity in Sprague-Dawley rat hippocampal neuron assessed as cell survival rate at 0.1 uM incubated for 24 hrs in presence of 150 uM H2O2 by MTT assay (reference value: 41.6 to 43.2 %); assay type: functional, Hippocampal neurone
[12] = Cytotoxicity against Sprague-Dawley rat cortical neuron assessed as cell survival at 33.3 uM incubated for 48 hrs by CellTiter Glo-based luminescence assay relative to control; design: species or system Cortical neurone; settings: rat cortical neurons, read-out: Activity

COC(=O)C1=CN(C)C(=O)[C@@H]2C(CN3CCN(Cc4cccc(OC)c4)CC3)=CC[C@H]12.Cl.Cl
Activity (Cortical neurone [1]): 59.5%
Activity (Cortical neurone [2]): 72.5%
Activity (Cortical neurone [3]): 63.8%

COC(=O)C1=CN(C)C(=O)[C@@H]2C(CN3CCN(Cc4ccc(Cl)cc4)CC3)=CC[C@H]12.Cl.Cl
Activity (Cortical neurone [1]): 62.7%
Activity (Cortical neurone [2]): 80.1%
Activity (Cortical neurone [3]): 71%

COC(=O)C1=CN(C(C)C)C(=O)[C@@H]2C(CN3CCN(Cc4ccc([N+](=O)[O-])cc4)CC3)=CC[C@H]12.Cl.Cl
viability at 48 h, 100 µM [4]: 78.5%
Activity (Cortical neurone [1]): 67.1%
viability at 48 h, 3.7 µM [5]: 97.2%
Activity (Cortical neurone [2]): 87.6%
Activity (Hippocampal neurone [6]): Dose-dependent effect
viability at 48 h, 11.1 µM [7]: 99.7%
Activity [8]: 73.8%
Activity (Hippocampal neurone [9]): Dose-dependent effect
Activity [10]: 82.1%
Activity (Cortical neurone [3]): 74.3%
Activity [11]: 57.6%
viability at 48 h, 33.3 µM [12]: 88.7%

COC(=O)C1=CN(C(C)C)C(=O)[C@@H]2C(CN3CCN(Cc4ccc(Cl)cc4)CC3)=CC[C@H]12.Cl.Cl
Activity (Cortical neurone [1]): 58.7%
Activity (Cortical neurone [2]): 71.9%
Activity (Cortical neurone [3]): 64.3%

COC(=O)C1=CN(C)C(=O)[C@@H]2C(CN3CCN(Cc4ccc(C(F)(F)F)cc4)CC3)=CC[C@H]12.Cl.Cl
Activity (Cortical neurone [1]): 63%
Activity (Cortical neurone [2]): 80.9%
Activity (Cortical neurone [3]): 72.2%

COC(=O)C1=CN(C(C)C)C(=O)[C@@H]2C(CN3CCN(Cc4cccc(C(F)(F)F)c4)CC3)=CC[C@H]12.Cl.Cl
Activity (Cortical neurone [1]): 58.7%
Activity (Cortical neurone [2]): 85.5%
Activity (Cortical neurone [3]): 71.6%

COc1cc2c(cc1OC)C(=O)C(CC1CCN(Cc3ccccc3)CC1)C2 (configuration not stated) [DONEPEZIL]
Activity (Cortical neurone [1]): 65.5%
Activity (Cortical neurone [2]): 85.9%
Activity (Cortical neurone [3]): 72.3%

COC(=O)C1=CN(C(C)C)C(=O)[C@@H]2C(CN3CCN(Cc4cccc(C)c4)CC3)=CC[C@H]12.Cl.Cl
Activity (Cortical neurone [1]): 59%
Activity (Cortical neurone [2]): 84.8%
Activity (Cortical neurone [3]): 71.3%

COC(=O)C1=CN(C(C)C)C(=O)[C@@H]2C(CN3CCN(Cc4ccc(C(F)(F)F)cc4)CC3)=CC[C@H]12.Cl.Cl
Activity (Cortical neurone [1]): 59.1%
Activity (Cortical neurone [2]): 85.7%
Activity (Cortical neurone [3]): 71.6%

CC(=O)N[C@@H](CS)C(=O)O [ACETYLCYSTEINE]
Activity [8]: 69.5%
Activity [10]: 79.1%
Activity [11]: 62.6%

COC(=O)C1=CN(C)C(=O)[C@@H]2C(CN3CCN(Cc4ccc(C)cc4)CC3)=CC[C@H]12.Cl.Cl
Activity (Cortical neurone [1]): 59%
Activity (Cortical neurone [2]): 72.6%
Activity (Cortical neurone [3]): 66.9%

COC(=O)C1=CN(C)C(=O)[C@@H]2C(CN3CCN(Cc4cccc(C)c4)CC3)=CC[C@H]12.Cl.Cl
Activity (Cortical neurone [1]): 60.8%
Activity (Cortical neurone [2]): 71.9%
Activity (Cortical neurone [3]): 66.7%

COC(=O)C1=CN(C(C)C)C(=O)[C@@H]2C(CN3CCN(Cc4ccc(C)cc4)CC3)=CC[C@H]12.Cl.Cl
Activity (Cortical neurone [1]): 59%
Activity (Cortical neurone [2]): 85.7%
Activity (Cortical neurone [3]): 73.1%

COC(=O)C1=CN(C(C)C)C(=O)[C@@H]2C(CN3CCN(Cc4ccc(F)cc4)CC3)=CC[C@H]12.Cl.Cl
viability at 48 h, 100 µM [4]: 80.9%
Activity (Cortical neurone [1]): 65.4%
viability at 48 h, 3.7 µM [5]: 94.2%
Activity (Cortical neurone [2]): 86.5%
Activity (Hippocampal neurone [6]): Dose-dependent effect
viability at 48 h, 11.1 µM [7]: 98.4%
Activity [8]: 67.3%
Activity (Hippocampal neurone [9]): Dose-dependent effect
Activity [10]: 72.4%
Activity (Cortical neurone [3]): 74.4%
Activity [11]: 60.4%
viability at 48 h, 33.3 µM [12]: 88.4%

COC(=O)C1=CN(C)C(=O)[C@@H]2C(CN3CCN(Cc4cccc(C(F)(F)F)c4)CC3)=CC[C@H]12.Cl.Cl
Activity (Cortical neurone [1]): 63.3%
Activity (Cortical neurone [2]): 80.3%
Activity (Cortical neurone [3]): 72.5%

COC(=O)C1=CN(C(C)C)C(=O)[C@@H]2C(CN3CCN(Cc4cccc(OC)c4)CC3)=CC[C@H]12.Cl.Cl
Activity (Cortical neurone [1]): 60.6%
Activity (Cortical neurone [2]): 64%
Activity (Cortical neurone [3]): 62.1%

COC(=O)C1=CN(C)C(=O)[C@@H]2C(CN3CCN(Cc4ccc(F)cc4)CC3)=CC[C@H]12.Cl.Cl
viability at 48 h, 100 µM [4]: 78.5%
Activity (Cortical neurone [1]): 63.8%
viability at 48 h, 3.7 µM [5]: 98.4%
Activity (Cortical neurone [2]): 85.7%
Activity (Hippocampal neurone [6]): Dose-dependent effect
viability at 48 h, 11.1 µM [7]: 96.2%
Activity [8]: 70.3%
Activity (Hippocampal neurone [9]): Dose-dependent effect
Activity [10]: 78.5%
Activity (Cortical neurone [3]): 71.3%
Activity [11]: 62.5%
viability at 48 h, 33.3 µM [12]: 85.1%

COC(=O)C1=CNC(=O)[C@@H]2C(CO)=CC[C@H]12
Activity (Cortical neurone [1]): 59%
Activity (Cortical neurone [2]): 79.3%
Activity [8]: 65.8%
Activity [10]: 70.9%
Activity (Cortical neurone [3]): 69.4%
Activity [11]: 59%

COC(=O)C1=CN(C)C(=O)[C@@H]2C(CN3CCN(Cc4ccccc4)CC3)=CC[C@H]12.Cl.Cl
Activity (Cortical neurone [1]): 58.6%
Activity (Cortical neurone [2]): 72.3%
Activity (Cortical neurone [3]): 63.7%

COC(=O)C1=CN(C)C(=O)[C@@H]2C(CN3CCN(Cc4ccc([N+](=O)[O-])cc4)CC3)=CC[C@H]12.Cl.Cl
Activity (Cortical neurone [1]): 60%
Activity (Cortical neurone [2]): 74.3%
Activity (Cortical neurone [3]): 66.7%

COC(=O)C1=CN(C(C)C)C(=O)[C@@H]2C(CN3CCN(Cc4ccccc4)CC3)=CC[C@H]12.Cl.Cl
viability at 48 h, 100 µM [4]: 82.5%
Activity (Cortical neurone [1]): 64.4%
viability at 48 h, 3.7 µM [5]: 90.7%
Activity (Cortical neurone [2]): 84.5%
Activity (Hippocampal neurone [6]): Dose-dependent effect
viability at 48 h, 11.1 µM [7]: 96.3%
Activity [8]: 71%
Activity (Hippocampal neurone [9]): Dose-dependent effect
Activity [10]: 76.2%
Activity (Cortical neurone [3]): 71.8%
Activity [11]: 60.3%
viability at 48 h, 33.3 µM [12]: 91.7%
